Measurements published in paper PMC7694037, “Quinolizidine-Derived Lucanthone and Amitriptyline Analogues Endowed with Potent Antileishmanial Activity” (Pharmaceuticals, 2020).

How the values were obtained:
[1] = system: L. infantum promastigotes; test: Antileishmanial activity against L. infantum promastigotes (MTT assay); conditions: for IC50: Leishmania infantum, 72 h, read-out: IC50 L. infantum; for Ratio IC50 Miltef./IC50 Compd. (L. infantum): ratio between IC50 of miltefosine and that of each compound, L. infantum promastigotes
Description: (§3) Promastigote stage of L. infantum strain MHOM/TN/80/IPT1 (kindly provided by Dr. M. Gramiccia, ISS, Roma) and L. tropica (MHOM/SY/2012/ISS3130) were cultured in RPMI 1640 medium (EuroClone) supplemented with 10% heat-inactivated fetal calf serum (EuroClone, Milan Italy), 20 mM Hepes and 2 mM L-glutamine at 24 °C. […] Compounds were dissolved in DMSO and then diluted with medium to achieve the required concentrations. Drugs were placed in 96 wells round-bottom microplates and seven serial dilutions made. Miltefosine was used as reference anti-Leishmania drug. Parasites were diluted in complete medium to 5 × 10^6 parasites/mL and 100 μL of the suspension was seeded into the plates, incubated at 24 °C for 72 h and then 20 µL of MTT solution (5 mg/mL) was added into each well for 3 h. The plates were then centrifuged, the supernatants were discarded and the resulting pellets were dissolved in 100 µL of lysing buffer consisting of 20% (w/v) of a solution of SDS (Sigma), 40% DMF (Merck, Milan Italy) in H2O. The absorbance was measured spectrophotometrically at a test wavelength of 550 nm and a reference wavelength of 650 nm.

[2] = system: Leishmania tropica promastigotes; test: Antileishmanial activity against L. tropica promastigotes (MTT assay); conditions: for IC50: Leishmania tropica, 72 h, read-out: IC50 L. tropica, promastigotes, MTT, 72 h, IC50 ± SD; for Ratio IC50 Miltef./IC50 Compd. (L. tropica): ratio between IC50 of miltefosine and that of each compound, L. tropica promastigotes
Description: as §3

[3] = i.p., doses up to 200–350 mg/kg, once a day for five consecutive days, mice inoculated with leukemia P388 cells; cited from earlier work
[4] = Cytotoxicity against Vero-76 cells (crystal violet staining); assay type: cell-based, Cercopithecus Aethiops; conditions: Cercopithecus aethiops (African green monkey)
Description: (§1) The cytotoxicity of lucanthone was also tested for comparison. […] The relevant selectivity index (SI)—a parameter that quantifies the preferential antileishmanial activity of a compound in relation to mammalian cell toxicity (CC50/IC50)—is tabulated in Table 2. […] The replacement of the 4-methyl substituent with an amino group in compound 14, while preserving good antileishmanial activity, led to a further substantial decrease of cytotoxicity, with a resultantly safer profile (SI = 16.2 and 16.9 for the two Leishmania species).
(§2) Vero-76 cells (ATCC CRL 1587 Cercopithecus Aethiops) were seeded at an initial density of 4 × 10^5 cells/mL in 24-well plates, in culture medium (Dulbecco’s modified eagle’s medium (D-MEM) with L-glutamine, supplemented with fetal bovine serum (FBS), 0.025 g/L kanamycin). Cell cultures were then incubated at 37 °C in a humidified, 5% CO2 atmosphere in the absence or presence of serial dilutions of test compounds. Cell viability was determined after 48–96 h at 37 °C by the Crystal violet staining method. The results are expressed as CC50, which is the concentration of compound necessary to inhibit cell growth by 50%. Each CC50 value is the mean and standard deviation of at least three separate experiments performed in duplicate.

[5] = system: Vero-76 cells; test: as above; assay type: cell-based, Cercopithecus Aethiops; conditions: for S.I. L. infantum: CC50 Vero-76 / IC50 L. infantum promastigotes; for S.I. L. tropica: CC50 Vero-76 / IC50 L. tropica promastigotes
Description: as §1, §2

[6] = system: Mycobacterium tuberculosis H37Ra; design: method as in PMID 3653383; conditions: cited from earlier work

With `COc1ccc2sc3c(C)ccc(NCCCC4CCCN5CCCCC45)c3c(=O)c2c1` (stereo not drawn) [Compound 7] the IC50 [1] was 19.7 ± 5.79 µM, the “Ratio IC50 Miltef./IC50 Compd. (L. infantum)” value [1] was 1.6 and the IC50 [2] was 12 ± 5.24 µM. The “Ratio IC50 Miltef./IC50 Compd. (L. tropica)” value [2] was 3.6.

In the case of `CCCCCCCCCCCCCCCCOP(=O)([O-])OCC[N+](C)(C)C` [Miltefosine, reference compound], the “Ratio IC50 Miltef./IC50 Compd. (L. infantum)” value [1] is reported as 1.0, the IC50 [2] is reported as 43.3 ± 11.4 µM and the “Ratio IC50 Miltef./IC50 Compd. (L. tropica)” value [2] is reported as 1.0.

In the case of `O=c1c2ccccc2sc2c([N+](=O)[O-])ccc(NCCCC3CCCN4CCCCC34)c12` (stereo not drawn) [Compound 10], the IC50 [1] is reported as 22.3 ± 3.3 µM, the “Ratio IC50 Miltef./IC50 Compd. (L. infantum)” value [1] is reported as 1.4 and the IC50 [2] is reported as 11.1 ± 3.3 µM. For the same compound, the “Ratio IC50 Miltef./IC50 Compd. (L. tropica)” value [2] was 3.9.

For `O=c1c2ccccc2sc2c([N+](=O)[O-])ccc(NCCC3CCCN4CCCCC34)c12` (stereo not drawn) [Compound 9], the mortality [3] is given as “no mortality”, the IC50 [1] is given as 9.39 ± 4.34 µM and the “Ratio IC50 Miltef./IC50 Compd. (L. infantum)” value [1] is given as 3.3. The IC50 [2] was 4.64 ± 1.12 µM and the “Ratio IC50 Miltef./IC50 Compd. (L. tropica)” value [2] was 9.3.

In the case of `C[N+]12CCCC[C@@H]1[C@H](C=C1c3ccccc3-c3ccccc31)CCC2` (stereo partly drawn) [Compound 19], the CC50 [4] is reported as 82.7 ± 4.7 µM, the “S.I. L. infantum” value [5] is reported as 5.0 and the “S.I. L. tropica” value [5] is reported as 7.9. For the same compound, the IC50 [1] was 16.4 ± 0.59 µM, the “Ratio IC50 Miltef./IC50 Compd. (L. infantum)” value [1] was 1.90 and the “MIC Mycobacterium tuberculosis H37Ra” value [6] was 83.9 µM. The IC50 [2] was 10.5 ± 2.69 µM and the “Ratio IC50 Miltef./IC50 Compd. (L. tropica)” value [2] was 4.1.

For `COc1ccc2sc3c([N+](=O)[O-])ccc(NCC4CCCN5CCCCC45)c3c(=O)c2c1` (stereo not drawn) [Compound 11], the IC50 [1] was 13 ± 0.97 µM, the “Ratio IC50 Miltef./IC50 Compd. (L. infantum)” value [1] was 2.4 and the IC50 [2] was 6.35 ± 1.46 µM. The “Ratio IC50 Miltef./IC50 Compd. (L. tropica)” value [2] was 6.8.

For `Cc1ccc(NC[C@@H]2CCC[N+]3(C)CCCC[C@H]23)c2c(=O)c3ccccc3sc12.[I-]` (stereo partly drawn) [Compound 4, (1S,9aR)-5-methyl-1-{[(4-methyl-9-oxo-9H-thioxanthen-1-yl)amino]methyl}-decahydroquinolizin-5-ium iodide], the melting point was 147 to 150 °C, the IC50 [1] was 13 ± 2.8 µM and the “Ratio IC50 Miltef./IC50 Compd. (L. infantum)” value [1] was 2.4. The IC50 [2] was 17.8 ± 5.61 µM and the “Ratio IC50 Miltef./IC50 Compd. (L. tropica)” value [2] was 2.4.

For `COc1ccc2sc3c(C)ccc(NCC4CCCN5CCCCC45)c3c(=O)c2c1` (stereo not drawn) [Compound 5], the mortality [3] is given as “no mortality”, the IC50 [1] is given as 8.99 ± 3.86 µM and the “Ratio IC50 Miltef./IC50 Compd. (L. infantum)” value [1] is given as 3.5. For the same compound, the IC50 [2] was 8.16 ± 5.23 µM and the “Ratio IC50 Miltef./IC50 Compd. (L. tropica)” value [2] was 5.3.

With `Cc1ccc(NCCC2CCCN3CCCCC23)c2c(=O)c3ccccc3sc12` (stereo not drawn) [Compound 2] the CC50 [4] was 22.9 ± 2.3 µM, the “S.I. L. infantum” value [5] was 2.2 and the “S.I. L. tropica” value [5] was 3.7. The IC50 [1] was 10.6 ± 3.78 µM, the “Ratio IC50 Miltef./IC50 Compd. (L. infantum)” value [1] was 2.95 and the IC50 [2] was 6.27 ± 2.75 µM. For the same compound, the “Ratio IC50 Miltef./IC50 Compd. (L. tropica)” value [2] was 6.9.

For `COc1ccc2sc3c([N+](=O)[O-])ccc(NCCCC4CCCN5CCCCC45)c3c(=O)c2c1` (stereo not drawn) [Compound 12], the IC50 [1] was 7.89 ± 2.41 µM, the “Ratio IC50 Miltef./IC50 Compd. (L. infantum)” value [1] was 3.95 and the IC50 [2] was 7.39 ± 2.31 µM. The “Ratio IC50 Miltef./IC50 Compd. (L. tropica)” value [2] was 5.85.

With `C[N+]12CCCC[C@@H]1[C@H](C=C1c3ccccc3CCc3ccccc31)CCC2.[I-]` (stereo partly drawn) [Compound 20, (1S,9aR)-1-[(10,11-dihydro-5H-dibenzo[a,d][7]annulen-5-ylidene)methyl]-5-methyl-decahydroquinolizin-5-ium iodide] the CC50 [4] was 89.9 ± 3.7 µM, the “S.I. L. infantum” value [5] was 10.3 and the “S.I. L. tropica” value [5] was 12.5. The melting point was 283 to 286 °C, the IC50 [1] was 8.71 ± 0.68 µM and the “Ratio IC50 Miltef./IC50 Compd. (L. infantum)” value [1] was 3.58. For the same compound, the IC50 [2] was 7.21 ± 3.52 µM and the “Ratio IC50 Miltef./IC50 Compd. (L. tropica)” value [2] was 6.0.
